Measurements as given in ChEMBL document CHEMBL1152560, “Substituted 2-arylbenzothiazoles as kinase inhibitors: hit-to-lead optimization” (Bioorg Med Chem, 2009).

Key:
[1] = biological target: T1, Activin receptor type-1B (Homo sapiens) (UniProt P36896); assay: Residual activity of ACVR1B at 10 uM by microplate scintillation counting
T1 sequence (whole entry): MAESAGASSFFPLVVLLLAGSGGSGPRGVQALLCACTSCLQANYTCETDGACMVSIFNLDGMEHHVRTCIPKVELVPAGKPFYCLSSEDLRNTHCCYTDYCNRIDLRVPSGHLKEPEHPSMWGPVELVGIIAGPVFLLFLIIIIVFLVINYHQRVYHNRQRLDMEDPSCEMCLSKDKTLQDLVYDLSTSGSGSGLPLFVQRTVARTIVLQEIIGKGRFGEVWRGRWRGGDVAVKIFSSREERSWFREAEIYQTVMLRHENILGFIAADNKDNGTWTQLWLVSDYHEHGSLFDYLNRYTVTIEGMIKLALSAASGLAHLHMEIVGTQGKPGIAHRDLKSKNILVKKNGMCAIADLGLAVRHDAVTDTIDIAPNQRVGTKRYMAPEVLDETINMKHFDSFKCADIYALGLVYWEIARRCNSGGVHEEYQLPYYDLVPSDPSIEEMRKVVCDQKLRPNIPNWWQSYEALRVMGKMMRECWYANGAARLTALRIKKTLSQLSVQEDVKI

[2] = Residual activity of PKA at 0.1 uM by microplate scintillation counting
[3] = biological target: T2, cGMP-dependent protein kinase 2 (Homo sapiens) (UniProt Q13237); assay: Residual activity of PRKG2 at 1 uM by microplate scintillation counting
T2 sequence (whole entry): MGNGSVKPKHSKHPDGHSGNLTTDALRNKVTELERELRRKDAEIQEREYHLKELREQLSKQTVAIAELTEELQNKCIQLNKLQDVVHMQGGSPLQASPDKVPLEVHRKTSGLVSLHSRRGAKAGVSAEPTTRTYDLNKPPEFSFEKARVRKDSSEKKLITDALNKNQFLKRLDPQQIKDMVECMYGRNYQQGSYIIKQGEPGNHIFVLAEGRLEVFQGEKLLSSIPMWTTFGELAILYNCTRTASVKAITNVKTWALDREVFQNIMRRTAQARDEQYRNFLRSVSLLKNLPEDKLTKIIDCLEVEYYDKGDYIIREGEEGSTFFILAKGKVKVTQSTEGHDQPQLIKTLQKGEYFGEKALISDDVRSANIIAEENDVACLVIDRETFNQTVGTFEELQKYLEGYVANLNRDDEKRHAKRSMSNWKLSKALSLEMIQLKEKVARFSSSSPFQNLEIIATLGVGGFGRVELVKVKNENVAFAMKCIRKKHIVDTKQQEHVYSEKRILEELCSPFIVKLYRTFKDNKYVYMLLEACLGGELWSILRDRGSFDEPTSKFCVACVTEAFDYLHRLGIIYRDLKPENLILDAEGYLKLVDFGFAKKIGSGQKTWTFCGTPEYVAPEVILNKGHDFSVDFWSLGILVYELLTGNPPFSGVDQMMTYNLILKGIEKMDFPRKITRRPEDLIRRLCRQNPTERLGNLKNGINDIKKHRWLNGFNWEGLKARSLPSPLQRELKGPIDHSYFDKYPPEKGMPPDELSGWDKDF

[4] = biological target: Vascular endothelial growth factor receptor 1 (Homo sapiens) (UniProt P17948); assay: Residual activity of VEGFR1 at 1 uM by microplate scintillation counting
[5] = biological target: T3, Ephrin type-A receptor 3 (Homo sapiens) (UniProt P29320); assay: Residual activity of EPHA3 at 1 uM by microplate scintillation counting
T3 sequence (whole entry): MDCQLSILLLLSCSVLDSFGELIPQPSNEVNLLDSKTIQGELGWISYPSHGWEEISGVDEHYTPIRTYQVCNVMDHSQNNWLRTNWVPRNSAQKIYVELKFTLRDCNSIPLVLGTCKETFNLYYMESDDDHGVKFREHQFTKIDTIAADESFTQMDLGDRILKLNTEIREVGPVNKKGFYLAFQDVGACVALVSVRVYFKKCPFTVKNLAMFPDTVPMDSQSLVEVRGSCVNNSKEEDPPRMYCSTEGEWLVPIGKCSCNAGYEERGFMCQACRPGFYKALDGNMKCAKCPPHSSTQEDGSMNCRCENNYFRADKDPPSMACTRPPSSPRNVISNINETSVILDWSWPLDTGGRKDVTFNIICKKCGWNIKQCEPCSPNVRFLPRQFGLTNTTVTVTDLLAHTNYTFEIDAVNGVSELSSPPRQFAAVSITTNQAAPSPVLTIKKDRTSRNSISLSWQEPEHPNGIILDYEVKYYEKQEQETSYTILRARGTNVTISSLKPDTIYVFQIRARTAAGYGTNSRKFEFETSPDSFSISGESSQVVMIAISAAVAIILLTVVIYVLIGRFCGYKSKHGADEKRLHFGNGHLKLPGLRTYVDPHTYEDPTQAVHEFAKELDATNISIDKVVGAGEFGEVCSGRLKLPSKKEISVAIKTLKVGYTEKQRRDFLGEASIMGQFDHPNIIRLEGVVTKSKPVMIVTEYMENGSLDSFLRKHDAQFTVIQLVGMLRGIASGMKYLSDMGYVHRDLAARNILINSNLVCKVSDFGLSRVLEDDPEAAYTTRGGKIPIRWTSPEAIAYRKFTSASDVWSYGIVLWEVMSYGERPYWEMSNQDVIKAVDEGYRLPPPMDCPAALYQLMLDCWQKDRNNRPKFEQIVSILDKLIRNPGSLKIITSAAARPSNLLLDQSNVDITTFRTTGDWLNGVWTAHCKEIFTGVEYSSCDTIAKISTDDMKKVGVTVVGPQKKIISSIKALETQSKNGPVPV

[6] = system: Epidermal growth factor receptor (Homo sapiens), P00533 [L858R,T790M]; assay: Residual activity of EGFR T790M/L858R mutant at 0.1 uM by microplate scintillation counting
[7] = biological target: Serine/threonine-protein kinase Chk2 (Homo sapiens) (UniProt O96017); assay: Residual activity of CHK2 at 0.1 uM by microplate scintillation counting
[8] = biological target: CDK1/Cyclin E (Homo sapiens) (UniProt P06493+P24864); assay: Residual activity of CDK1/Cyclin E at 1 uM by microplate scintillation counting; assay type: protein-complex assay
Chain of CDK1/Cyclin E (Homo sapiens) (P06493 whole entry, looked up): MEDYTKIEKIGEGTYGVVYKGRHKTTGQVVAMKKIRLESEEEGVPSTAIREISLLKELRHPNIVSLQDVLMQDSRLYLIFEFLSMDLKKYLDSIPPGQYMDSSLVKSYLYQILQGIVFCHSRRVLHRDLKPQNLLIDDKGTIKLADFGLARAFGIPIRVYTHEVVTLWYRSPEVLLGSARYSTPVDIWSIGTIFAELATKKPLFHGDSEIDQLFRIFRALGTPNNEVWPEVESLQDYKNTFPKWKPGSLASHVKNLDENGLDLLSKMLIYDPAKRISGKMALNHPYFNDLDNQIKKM
Chain of CDK1/Cyclin E (Homo sapiens) (P24864 whole entry, looked up): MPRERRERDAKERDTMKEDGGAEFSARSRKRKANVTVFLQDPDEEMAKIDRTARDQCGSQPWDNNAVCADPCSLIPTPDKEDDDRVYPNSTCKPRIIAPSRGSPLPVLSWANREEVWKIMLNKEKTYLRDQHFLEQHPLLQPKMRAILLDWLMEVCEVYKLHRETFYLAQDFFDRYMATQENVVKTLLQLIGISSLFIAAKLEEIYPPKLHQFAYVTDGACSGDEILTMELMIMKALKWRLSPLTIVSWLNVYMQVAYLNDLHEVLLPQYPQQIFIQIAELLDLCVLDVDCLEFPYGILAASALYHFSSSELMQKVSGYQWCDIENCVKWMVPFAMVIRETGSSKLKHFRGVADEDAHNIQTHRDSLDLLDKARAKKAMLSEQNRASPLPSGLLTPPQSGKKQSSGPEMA

Chain of Serine/threonine-protein kinase Chk2 (Homo sapiens) (O96017 whole entry): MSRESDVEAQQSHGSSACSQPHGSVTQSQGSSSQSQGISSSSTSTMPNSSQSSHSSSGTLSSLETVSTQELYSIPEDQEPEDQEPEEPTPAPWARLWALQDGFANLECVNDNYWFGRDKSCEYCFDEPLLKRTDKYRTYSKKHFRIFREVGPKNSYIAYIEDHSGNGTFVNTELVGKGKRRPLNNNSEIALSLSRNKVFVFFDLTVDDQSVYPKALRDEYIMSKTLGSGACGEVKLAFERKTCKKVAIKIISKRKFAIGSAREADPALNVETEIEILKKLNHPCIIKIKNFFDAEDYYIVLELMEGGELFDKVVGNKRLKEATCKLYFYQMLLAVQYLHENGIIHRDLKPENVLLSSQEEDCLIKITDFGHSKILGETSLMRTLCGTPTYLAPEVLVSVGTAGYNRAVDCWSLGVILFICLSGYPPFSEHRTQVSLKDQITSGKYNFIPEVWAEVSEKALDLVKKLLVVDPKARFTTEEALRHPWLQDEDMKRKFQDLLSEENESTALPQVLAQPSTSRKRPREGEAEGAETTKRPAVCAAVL
Chain of Vascular endothelial growth factor receptor 1 (Homo sapiens) (P17948 whole entry): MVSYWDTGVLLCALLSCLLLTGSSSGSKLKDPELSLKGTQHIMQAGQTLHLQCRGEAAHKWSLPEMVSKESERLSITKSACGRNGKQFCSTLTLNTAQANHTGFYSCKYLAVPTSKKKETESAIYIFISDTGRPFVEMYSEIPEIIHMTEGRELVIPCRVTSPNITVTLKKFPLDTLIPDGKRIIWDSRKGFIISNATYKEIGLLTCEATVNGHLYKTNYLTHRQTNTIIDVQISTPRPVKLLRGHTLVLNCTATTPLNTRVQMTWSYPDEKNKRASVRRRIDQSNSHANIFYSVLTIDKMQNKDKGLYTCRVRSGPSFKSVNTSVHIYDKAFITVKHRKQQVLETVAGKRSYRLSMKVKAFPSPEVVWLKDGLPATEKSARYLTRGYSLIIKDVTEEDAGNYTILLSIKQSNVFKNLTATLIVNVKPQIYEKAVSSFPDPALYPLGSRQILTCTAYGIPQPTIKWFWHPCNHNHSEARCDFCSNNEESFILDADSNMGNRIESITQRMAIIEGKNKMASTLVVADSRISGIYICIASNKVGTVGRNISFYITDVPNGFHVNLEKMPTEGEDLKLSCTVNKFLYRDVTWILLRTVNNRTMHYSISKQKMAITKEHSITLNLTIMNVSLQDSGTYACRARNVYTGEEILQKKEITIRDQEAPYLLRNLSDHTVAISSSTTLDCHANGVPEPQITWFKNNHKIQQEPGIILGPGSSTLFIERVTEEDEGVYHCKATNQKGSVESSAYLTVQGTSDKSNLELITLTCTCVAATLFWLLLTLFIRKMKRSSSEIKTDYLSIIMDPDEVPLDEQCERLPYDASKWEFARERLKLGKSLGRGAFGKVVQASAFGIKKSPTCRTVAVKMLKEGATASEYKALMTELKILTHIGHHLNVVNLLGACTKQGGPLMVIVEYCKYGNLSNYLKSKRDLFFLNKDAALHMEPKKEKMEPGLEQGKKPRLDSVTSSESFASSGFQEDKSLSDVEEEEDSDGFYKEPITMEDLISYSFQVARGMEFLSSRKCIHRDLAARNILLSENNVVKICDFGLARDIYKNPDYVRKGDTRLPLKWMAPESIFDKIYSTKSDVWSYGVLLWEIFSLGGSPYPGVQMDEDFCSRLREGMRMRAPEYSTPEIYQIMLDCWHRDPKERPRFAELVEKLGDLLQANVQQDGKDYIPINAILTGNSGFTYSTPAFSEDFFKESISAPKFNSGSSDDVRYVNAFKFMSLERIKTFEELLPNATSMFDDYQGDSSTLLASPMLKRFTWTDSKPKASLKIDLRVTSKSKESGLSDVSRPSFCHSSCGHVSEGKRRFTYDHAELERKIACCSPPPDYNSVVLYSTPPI

| residual activity [1] [%] | residual activity [2] [%] | residual activity [3] [%] | residual activity [4] [%] | residual activity [5] [%] | residual activity [6] [%] | residual activity [7] [%] | residual activity [8] [%] | Structure (SMILES) |
| --- | --- | --- | --- | --- | --- | --- | --- | --- |
| 104 | 95 | 84 | 74 | 90 | 98 | 88 | 85 | COc1cc2c(Oc3ccc(-c4nc5ccccc5s4)cc3)ncnc2cc1OCCCN1CCCC1 |
| 93 | 89 | 96 | 75 | 96 | 100 | 91 | 88 | COc1cc2c(Oc3ccc(-c4nc5ccccc5s4)cc3)ncnc2cc1OCCCN1CCN(C)CC1 |
| 109 | 98 | 85 | 74 | 96 | 101 | 92 | 90 | COc1cc2c(Oc3ccc(-c4nc5ccccc5s4)cc3F)ncnc2cc1OCCCN1CCN(C)CC1 |
